Results: patent US20230357708A1, “BI[…] PARA-HYDROXYBENZOIC ACID FROM METHANOL AND METHANE” (The Board of Trustees of the Leland Stanford Junior …, priority 2020, published 2023)

Tests used:
[1] = test system: M. buryatense 5GB1 (5G) strain; assay: 4HBA toxicity test, streaks on plates with horizontal 4HBA-gradient; type: cell-based, Methylotuvimicrobium buryatense; details: background-strain streaks, 4HBA-gradient 0-10 mM, pH 8.9
Protocol: (§1) Fast growers were mutants with changed 4HBA-operon sequence. Fast-growing mutant #1 produced some 4HBA. […] The toxic conditions in turn favoured re-arrangement and/or point mutations of the plasmid. Streaks of the transconjugants on solid medium without methanol, grew comparatively well The solid medium was supplemented with nutrient broth, NMS2.1kan and MeOH. Toxicity tests with varying 4HBA concentrations was performed.

[2] = test system: M. alcahphilum 20Z strain; assay: as above; type: cell-based, Methylomicrobium alcaliphilum; details: background-strain streaks, 4HBA-gradient 0-10 mM, pH 8.9
Protocol: as §1

Question: With `O=C(O)c1ccc(O)cc1` [4HBA, para-hydroxybenzoic acid] as the compound, how does the “effect of 4HBA on growth” value [1] read?
Answer: significant inhibitory effect

Question: And the “effect of 4HBA on growth compared with the M. alcahphilum 20Z strain” value [1]?
Answer: more severely affected

Question: And the “effect of 4HBA on growth” value [2]?
Answer: significant inhibitory effect
